Test results as given in patent US20240173419A1, “CDK2 DEGRADERS AND USES THEREOF” (Kymera Therapeutics, Inc., priority 2022, published 2024).

Biological target: T1, CDK2 (Homo sapiens, UniProt P24941)
T1 construct: endogenous in cells; host or cells: MKN1 cells
Assay: CDK2 degradation in MKN1 cells (AlphaLISA)
Format: cell-based
Design: key to CDK2 degradation 14 h: Mean external-Abs DC50 (nM): A (<100 nM); B (≥100-500 nM); C (>500-1000 nM); D (>1000 nM); E (not achieved)
Conditions: for DC50: read-out: CDK2 degradation 14 h: Mean external-Abs DC50
Summary of the method: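 MKN1 cells (2e4/well) treated 14 h at 37° C with 11-point 1:5 dilutions (0.001 nM-10 μM, 0.1% DMSO). CDK2 in lysates quantified by AlphaLISA, no-cell background subtracted; DC50 from four-parameter logistic fit.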

| CDK2 degradation 14 h: Average Dmax % (14 h incubation) | DC50 (14 h incubation) | Dmax (MKN-1, 14 h incubation) | CDK2 degradation 14 h: Mean external-Abs DC50 (nM) (14 h incubation) | SMILES |
| --- | --- | --- | --- | --- |
| B (B (>50% -75%)) | 100 to 500 nM | – | – | Cc1cc(S(=O)(=O)N2CC(CN(C)C3CCN(c4cccc5c4n(C)c(=O)n5C4CCC(=O)NC4=O)CC3)C2)ccc1Nc1ncc2cc(Cl)c(=O)n(C3CCCC3)c2n1 (centres unmarked) [I-421] |
| A (A (>75% o)) | < 100 nM | – | – | Cc1cc(S(=O)(=O)NC2CCC(CN3CCN(c4ccc(C5CCC(=O)NC5=O)c(F)c4)CC3)CC2)c(F)cc1Nc1ncc(C(F)(F)F)c(N2CCCC(C)(O)C2)n1 (centres unmarked) [I-1096] |
| A (A (>75% o)) | < 100 nM | – | – | CC1(O)CCN(c2nc(Nc3ccc(S(=O)(=O)NC4CCN(CC5CCN(c6ccc(C7CCC(=O)NC7=O)cc6F)CC5)CC4F)cc3F)ncc2C(F)(F)F)CC1 (centres unmarked) [I-1050] |
| A (A (>75% o)) | < 100 nM | – | – | Cc1cc(S(=O)(=O)NC2CC(N3CCN(CC4CCN(c5cccc6c5n(C)c(=O)n6C5CCC(=O)NC5=O)CC4)CC3)C2)ccc1Nc1ncc(C(F)(F)F)c(N2CCCC(C)(O)C2)n1 (centres unmarked) [I-663] |
| A (A (>75% o)) | < 100 nM | – | – | Cc1cc(S(=O)(=O)NC2CCN(CC3CCN(c4ccc(C5CCC(=O)NC5=O)cc4F)CC3)CC2F)ccc1Nc1ncc(C(F)(F)F)c(N2CCCC(C)(O)C2)n1 (centres unmarked) [I-1054] |
| A (A (>75% o)) | 100 to 500 nM | – | – | Cc1cc(S(=O)(=O)C2CC3(CCN(CC4CCN(c5cc(F)cc(NC6CCC(=O)NC6=O)c5)CC4)CC3)C2)ccc1Nc1ncc2cc(Cl)c(=O)n(C3CCCC3)c2n1 (centres unmarked) [I-69] |
| A (A (>75% o)) | < 100 nM | – | – | Cc1cc(S(=O)(=O)N2CCC(CN(C)C3CCN(c4cccc5c4n(C)c(=O)n5C4CCC(=O)NC4=O)CC3)CC2)ccc1Nc1ncc(C(F)(F)F)c(-c2cnn(C)c2)n1 (centres unmarked) [I-1155] |
| D (D (<25%)) | > 1000 nM | – | – | Cc1cc(S(=O)(=O)N2CCC(OCC#Cc3cccc4c3n(C)c(=O)n4C3CCC(=O)NC3=O)CC2)ccc1Nc1ncc2cc(Cl)c(=O)n(C3CCCC3)c2n1 (centres unmarked) [I-455] |
| A (A (>75% o)) | < 100 nM | – | – | Cc1cc(S(=O)(=O)N2CCC(CN(C)C3CCN(c4cccc5c4n(C)c(=O)n5C4CCC(=O)NC4=O)CC3)CC2)ccc1Nc1ncc2cc(C(F)(F)F)c(=O)n(C3CCCC3)c2n1 (centres unmarked) [I-341] |
| A (A (>75% o)) | < 100 nM | – | – | Cc1cc(S(=O)(=O)NC2CCC(CN3CCN(c4ccc(C5CCC(=O)NC5=O)cc4)CC3)CC2)ccc1Nc1ncc(C(F)(F)F)c(N2CCCC(C)(O)C2)n1 (centres unmarked) [I-799] |
| A (A (>75% o)) | 100 to 500 nM | – | – | CC1(O)CCCN(c2nc(Nc3ccc(S(=O)(=O)NC4CCC(CN5CCN(c6ccc(C7CCC(=O)NC7=O)c(F)c6)CC5)CC4)cc3OC(F)F)ncc2C(F)(F)F)C1 (centres unmarked) [I-1115] |
| B (B (>50% -75%)) | < 100 nM | – | – | Cc1cc(S(=O)(=O)C2CC3(CCN(CC4CCN(c5ccc6c(c5F)n(C)c(=O)n6C5CCC(=O)NC5=O)CC4)CC3)C2)ccc1Nc1ncc(C(F)(F)F)c(N2CCC(C)C(C)(O)C2)n1 (centres unmarked) [I-849] |
| A (A (>75% o)) | < 100 nM | – | – | CC1(O)CCCN(c2nc(Nc3ccc(S(=O)(=O)NC4CCN(CC5(C)CCN(c6ccc(C7CCC(=O)NC7=O)c(F)c6)CC5)CC4F)cc3F)ncc2C(F)(F)F)C1 (centres unmarked) [I-1069] |
| D (D (<25%)) | > 1000 nM | – | – | Cc1cc(S(=O)(=O)N2CCC(CN(CC(F)(F)F)C3CCN(c4cccc5c4n(C)c(=O)n5C4CCC(=O)NC4=O)CC3)CC2)ccc1Nc1ncc2cc(Cl)c(=O)n(C3CCCC34CC4)c2n1 (centres unmarked) [I-354] |
| A (A (>75% o)) | < 100 nM | – | – | Cc1cc(S(=O)(=O)NC2CCC(CN3CCN(c4cccc(NC5CCC(=O)NC5=O)c4F)CC3)CC2)ccc1Nc1ncc(C(F)(F)F)c(N2CCCC(C)(O)C2)n1 (centres unmarked) [I-1143] |
| A (A (>75% o)) | < 100 nM | – | – | CC1(O)CCCN(c2nc(Nc3ccc(S(=O)(=O)NC4CCC(CN5CCN(c6ccc(C7CCC(=O)NC7=O)cc6)CC5)CC4)cc3Cl)ncc2C(F)(F)F)C1 (centres unmarked) [I-1100] |
| B (B (>50% -75%)) | < 100 nM | – | – | Cc1cc(S(=O)(=O)N2CCC(N3CCN(CCCc4ccc5c(c4)n(C)c(=O)n5C4CCC(=O)NC4=O)CC3)CC2)ccc1Nc1ncc2ccc(=O)n(C3CCCC3)c2n1 (centres unmarked) [I-464] |
| A (A (>75% o)) | < 100 nM | – | – | CC1(O)CCN(c2nc(Nc3ccc(S(=O)(=O)NC4CCN(CC5CCN(c6ccc(C7CCC(=O)NC7=O)c(F)c6)CC5)CC4F)cc3F)ncc2C(F)(F)F)CC1 (centres unmarked) [I-1051] |
| A (A (>75% o)) | < 100 nM | – | – | Cc1cc(S(=O)(=O)NCCCN2CCN(CC3CCN(c4ccc5c(c4)n(C)c(=O)n5C4CCC(=O)NC4=O)CC3)CC2)ccc1Nc1ncc2cc(Cl)c(=O)n(C3CCCC3)c2n1 (centres unmarked) [I-431] |

| CDK2 degradation 14 h: Average Dmax % (14 h incubation) | DC50 (14 h incubation) | Dmax (MKN-1, 14 h incubation) | CDK2 degradation 14 h: Mean external-Abs DC50 (nM) (14 h incubation) | SMILES |
| --- | --- | --- | --- | --- |
| B (B (>50% -75%)) | > 1000 nM | – | – | Cc1cc(S(=O)(=O)NCCC2CCN(c3ccc(N4CCC(=O)NC4=O)cc3)CC2)ccc1Nc1ncc2cc(Cl)c(=O)n(C3CCCC3)c2n1 [I-413] |
| – | < 100 nM | > 75% | – | Cc1cc(S(=O)(=O)C2CCN(CCN3CCN(c4cccc5c4n(C)c(=O)n5C4CCC(=O)NC4=O)CC3)CC2)ccc1Nc1ncc2c(n1)N(C1CCCC1)C(=O)C21CC1 (centres unmarked) [I-50, 3-[4-[4-[2-[4-[4-[(7′-Cyclopentyl-6′-oxo-spiro[cyclopropane-1,5′-pyrrolo[2,3-d]pyrimidine]-2′-yl)amino]-3-methyl-phenyl]sulfonyl-1-piperidyl]ethyl]piperazin-1-yl]-3-methyl-2-oxo-benzimidazol-1-yl]piperidine-2,6-dione] |
| A (A (>75% o)) | < 100 nM | – | – | Cc1cc(S(=O)(=O)NCCOC2CCC(CN3CCC(c4ccc5c(c4)n(C)c(=O)n5C4CCC(=O)NC4=O)CC3)CC2)ccc1Nc1ncc2c(n1)N(C1CCCC1)C(=O)C21CC1 (centres unmarked) [I-537] |
| C (C (>25% -50%)) | – | – | E | Cc1cc(S(=O)(=O)C2CC3(CCN(CC4CCN(c5ccc6c(c5F)n(C)c(=O)n6C5CCC(=O)NC5=O)CC4)CC3)C2)ccc1Nc1ncc2cc(Cl)c(=O)n(C3CCOC3)c2n1 (centres unmarked) [I-129] |
| A (A (>75% o)) | < 100 nM | – | – | Cc1cc(S(=O)(=O)N2CCC(CN(C)C3CCN(c4cccc5c4n(C)c(=O)n5C4CCC(=O)NC4=O)CC3)CC2)ccc1Nc1nc(OC2CCCCC2)c2nc[nH]c2n1 (centres unmarked) [I-970] |
| A (A (>75% o)) | < 100 nM | – | – | Cc1cc(S(=O)(=O)NC2CC3(CCN(CC4CCN(c5cccc6c5n(C)c(=O)n6C5CCC(=O)NC5=O)CC4)CC3)C2)ccc1Nc1ncc2cc(Cl)c(=O)n(C3CCCC3)c2n1 (centres unmarked) [I-347] |
| A (A (>75% o)) | < 100 nM | – | – | Cc1cc(S(=O)(=O)NC2CC(N3CCN(CC4CN(c5cccc6c5n(C)c(=O)n6C5CCC(=O)NC5=O)C4)CC3)C2)ccc1Nc1ncc(C(F)(F)F)c(C2CCC(C)(O)CC2)n1 (centres unmarked) [I-847] |
| A (A (>75% o)) | < 100 nM | – | – | Cc1cc(S(=O)(=O)C2CC3(CCN(CC4CCN(c5ccc6c(c5F)n(C)c(=O)n6C5CCC(=O)NC5=O)CC4)CC3)C2)ccc1Nc1ncc2cc(Cl)c(=O)n(C3CCCC3)c2n1 (centres unmarked) [I-38] |
| A (A (>75% o)) | < 100 nM | – | – | Cc1cc(S(=O)(=O)C2CC3(CCN(CC4CCN(c5ccc(NC6CCC(=O)NC6=O)c(Cl)c5)CC4)CC3)C2)ccc1Nc1ncc2cc(Cl)c(=O)n(C3CCCC3)c2n1 (centres unmarked) [I-329] |
| A (A (>75% o)) | < 100 nM | – | – | Cc1cc(S(=O)(=O)NCCOC2CCC(CN3CCC(c4ccc5c(c4F)n(C)c(=O)n5C4CCC(=O)NC4=O)CC3)CC2)ccc1Nc1ncc(C(F)(F)F)c(C2CCC(C)(O)CC2)n1 (centres unmarked) [I-515] |
| A (A (>75% o)) | < 100 nM | – | – | Cc1cc(S(=N)(=O)C2CC3(CCN(CC4CCN(c5cccc6c5n(C)c(=O)n6C5CCC(=O)NC5=O)CC4)CC3)C2)ccc1Nc1ncc2cc(Cl)c(=O)n(C3CCCC3)c2n1 (centres unmarked) [I-93] |
| D (D (<25%)) | > 1000 nM | – | – | Cc1cc(S(=O)(=O)C2CC3(CCN(CC4CCN(c5ccc6c(c5F)n(C)c(=O)n6C5CCC(=O)NC5=O)CC4)CC3)C2)ccc1Nc1ncc(C2CC2)c(N2CCCC(C)(O)C2)n1 (centres unmarked) [I-839] |
| A (A (>75% o)) | < 100 nM | – | – | Cc1cc(S(=O)(=O)N[C@H]2CC[C@H](CN3CCN(c4ccc(C5CCC(=O)NC5=O)cc4F)C[C@@H]3C)CC2)ccc1Nc1ncc(C(F)(F)F)c(N2CCC[C@](C)(O)C2)n1 (some centres unmarked) [I-810] |
| A (A (>75% o)) | < 100 nM | – | – | Cc1cc(S(=O)(=O)NC2(C)CCN(CC3CCN(c4ccc(C5CCC(=O)NC5=O)c(Cl)c4)CC3)CC2)ccc1Nc1ncc(C(F)(F)F)c(N2CCC[C@](C)(O)C2)n1 (some centres unmarked) [I-801] |
| A (A (>75% o)) | < 100 nM | – | – | Cn1c(=O)n(C2CCC(=O)NC2=O)c2ccc(N3CCC(CN4CCC(NS(=O)(=O)c5ccc(Nc6ncc(C(F)(F)F)c(N7CCCC(C)(O)C7)n6)c(F)c5)C(F)C4)CC3)cc21 (centres unmarked) [I-1039] |
| A (A (>75% o)) | < 100 nM | – | – | Cc1cc(S(=O)(=O)N[C@@H]2CCN(CC3CCN(c4ccc(C5CCC(=O)NC5=O)cc4F)CC3)C[C@H]2F)ccc1Nc1ncc(C(F)(F)F)c(N2CCC[C@](C)(O)C2)n1 (some centres unmarked) [I-804] |
| A (A (>75% o)) | < 100 nM | – | – | Cc1cc(S(=O)(=O)C2CCN(CCC3CCN(c4cccc5c4n(C)c(=O)n5C4CCC(=O)NC4=O)CC3)CC2)ccc1Nc1ncc2cc(Cl)c(=O)n(C3CCCC34CC4)c2n1 (centres unmarked) [I-59] |
| A (A (>75% o)) | < 100 nM | – | – | Cc1cc(S(=O)(=O)NCCO[C@H]2CC[C@H](CN3CCC(c4ccc5c(c4)n(C)c(=O)n5C4CCC(=O)NC4=O)CC3)CC2)ccc1Nc1ncc2cc(Cl)c(=O)n(C(C)C)c2n1 (some centres unmarked) [I-440] |
